Data taken from patent US20250146080A1, “METHODS FOR OVERCOMING TAZEMETOSTAT-RESISTANCE IN CANCER PATIENTS” (MEMORIAL SLOAN-KETTERING CANCER CENTER, priority 2022, published 2025).
Read-outs that look alike come from different tables or passages of the source. Values belong to the compound of their own block, whether it stands above or below them.

Experiments:
[1] = system: EZH2^Y666N expressing G401 rhabdoid tumor cells; assay: Cell viability (CellTiter-Glo), G401 clones expressing doxycycline-inducible EZH2^Y666N; format: cell-based; settings: 10 μM drug, 14 days
Experimental: (§1) Drug and media were replaced on Days 4, 7, and 11. CellTiter-Glo assays were performed on Day 14, with luminescence readings taken using an automated fluorescence plate reader (Tecan). CellTiter-Glo reagent was freshly reconstituted on the day of measurement and added in a 1:1 proportion to cell media. […] Cell line doubling time was determined by measuring cell viability every 24 hours over the course of 4 days, and fitting the cell viability to a two-parameter exponential curve. […] After the addition of cells, drugs were added using a pin tool (stainless steel pins with 50 nL slots, V&P Scientific) mounted onto a liquid handling robot (CyBio Well vario, Analytik Jena). For analysis of synergy, we used the synergyFinder package (2). Outliers due to pinning errors were excluded after manual examination.

[2] = system: RB1^WT G401 cells; assay: Cell viability (CellTiter-Glo) dose response, G401 RB1^WT; format: cell-based; settings: Homo sapiens, G-401, 144 h, barasertib for 6 days, read-out: half-maximal effective concentration
Experimental: as §1

[3] = system: RB1^del G401 cells; assay: Cell viability (CellTiter-Glo), G401 RB1^del clones E1 and F2; format: cell-based; settings: for EC50: Homo sapiens, G-401, 144 h, barasertib for 6 days, read-out: half-maximal effective concentration; for overcoming TAZ resistance in RB1^del G401 cells: seleciclib, alisertib 9 days, barasertib 6 days
Experimental: G401 cells with RB1 mutations were engineered by Synthego. […] Ribonucleprotein containing spCas9 and sgRNA was transfected into G401 cells by electroporation. […] The cells were then single-cell cloned and re-verified by Sanger sequencing.
as §1, with “CellTiter-Glo assays were performed on Day 14, with luminescence readings taken using an automated fluorescence plate reader (Tecan).” left out

[4] = target: T1, CHK1 (Homo sapiens, UniProt O14757); assay: Western blot of CHK1 autophosphorylation at S296; format: cell-based; settings: SRA737 3 μM, 2 days
T1 construct: endogenous in cells; host or cells: G401 rhabdoid tumor cells
T1 sequence (O14757 1-476): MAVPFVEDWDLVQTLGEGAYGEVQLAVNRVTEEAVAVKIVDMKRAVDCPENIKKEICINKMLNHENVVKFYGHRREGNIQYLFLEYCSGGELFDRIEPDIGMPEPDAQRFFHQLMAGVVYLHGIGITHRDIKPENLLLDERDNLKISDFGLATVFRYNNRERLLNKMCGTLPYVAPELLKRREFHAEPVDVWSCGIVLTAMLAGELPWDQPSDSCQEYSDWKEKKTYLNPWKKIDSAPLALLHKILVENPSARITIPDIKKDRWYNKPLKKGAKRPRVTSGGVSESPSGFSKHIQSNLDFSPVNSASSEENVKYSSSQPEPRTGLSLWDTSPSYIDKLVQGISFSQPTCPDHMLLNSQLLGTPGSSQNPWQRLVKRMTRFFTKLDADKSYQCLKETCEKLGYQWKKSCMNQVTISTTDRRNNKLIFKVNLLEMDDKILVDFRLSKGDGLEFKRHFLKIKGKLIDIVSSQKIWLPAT
Experimental: To assess protein expression by Western immunoblotting, pellets of 1 million cells were prepared and washed once in cold PBS. Cells were resuspended in 100-130 μL of RIPA lysis buffer (50 mM Tris-HCl, pH 8.0, 150 mM NaCl, 1.0% NP-40, 0.5% sodium deoxycholate, 0.1% sodium dodecyl sulfate) and incubated on ice for 10 minutes. Cell suspensions were then disrupted using a Covaris S220 adaptive focused sonicator for 5 minutes (peak incident power: 35W, duty factor: 10%, 200 cycles/burst) at 4° C. Lysates were cleared by centrifugation at 18,000 g for 15 min at 4° C. Protein concentration was assayed using the DC Protein Assay (Bio-Rad) and 15-35 μg whole cell extract was used per sample. Samples were boiled at 95° C. in Laemmli buffer (Bio-Rad) with 40 mM DTT and resolved using sodium dodecyl sulfate-polyacrylamide gel electrophoresis. Proteins were transferred to Immobilon FL PVDF membranes (Millipore), and membranes were blocked using Intercept Blocking buffer (Li-Cor). […] Blotted membranes were visualized using goat secondary antibodies conjugated to IRDye 680RD or IRDye 800CW (Li-Cor, 926-68071 and 926-32210) at 1:15,000 and the Odyssey CLx fluorescence scanner, according to manufacturer's instructions (Li-Cor). […]

[5] = system: G401 cells; settings: single drug, 7 days; DMSO 0.061
Experimental: Immunofluorescence for γH2AX was performed on cells plated on Millicell EZ Slide glass slides (EMD Millipore), coated for 45 minutes with bovine plasma fibronectin (Millipore Sigma). After drug treatment, cells were washed once with PBS and fixed in 4% formaldehyde for 10 minutes at room temperature. Slides were then washed three times in PBS for 5 minutes, permeabilized for 15 minutes in 0.3% Triton X-100, washed again in PBS three times, and blocked with 5% goat serum (Millipore Sigma, G9023) in PBS for 1 hour at room temperature. Slides were incubated with mouse anti-γH2A.X primary antibody (Sigma-Aldrich, 05-636) at 1:500 in blocking buffer for 1 hour, washed three times in PBS, and incubated with goat anti-mouse secondary antibody conjugated to AlexaFluor555 (Invitrogen, A-21422) at 1:1,000. Cells were then counterstained with DAPI at 1:1,000 for 10 minutes and treated with ProLong Diamond Antifade Mountant with DAPI (Invitrogen, P36962) for 48 hours.
Images were acquired on a Leica SP5 confocal microscope in the upright configuration at 63× magnification. Images were then processed using a custom pipeline in CellProfiler (6). Per-cell integrated γH2A.X intensity was normalized against per-cell integrated DAPI intensity.

[6] = system: RB1^del G401 cells; assay: Flow cytometry cell cycle analysis (EdU/propidium iodide), G401 RB1^del clones; format: cell-based; settings: 1 μM TAZ, 11 days
Experimental: (§2) On Day 11, cells were pulsed with EdU for 1 hour. Cells were then harvested and processed for flow cytometry using the manufacturer's protocol (Click-iT, Invitrogen). Briefly, cells were washed with PBS with 1% BSA, permeabilized, and incubated with AlexaFluor647 for 30 minutes. DNA content was measured using propidium iodide (0.05 μg/μL). Cells were analyzed on a CytoFLEX LX (Beckman Coulter).

[7] = system: MRT and ES cell lines; assay: TAZ dose-response curves in a panel of MRT and ES cell lines; format: cell-based; settings: 13 days, AUC integrated from 40 nM to 50 μM
Experimental: as §1

[8] = system: RB1^WT G401 cells; assay: Flow cytometry cell cycle analysis (EdU/propidium iodide), G401 RB1^WT; format: cell-based; settings: 1 μM TAZ, 11 days
Experimental: as §2

Compound: Cc1cc(C)c(CNC(=O)c2cc(Cl)c3c(c2C)O[C@@](C)([C@H]2CC[C@H](N(C)C)CC2)O3)c(=O)[nH]1 [valemetostat]
- cell viability of EZH2^Y666N clones versus wild-type EZH2 [1]: confers resistance

Compound: Cc1ncccc1-c1cnc(NCc2c(F)ccc3c2CCO3)n2cnnc12 [MAK683]
- cell viability of EZH2^Y666N clones versus wild-type EZH2 [1]: overcomes EZH2^Y666N-mediated resistance

Compound: CCN(CCCOc1ccc2c(Nc3cc(CC(=O)Nc4cccc(F)c4)n[nH]3)ncnc2c1)CCOP(=O)(O)O [barasertib]
- EC50 [2]: 6.5 ± 0.5 nM
- EC50 ([3]; G401 RB1^del E1 clone): 5.5 ± 0.6 nM
- EC50 ([3]; G401 RB1^del F2 clone): 5.9 ± 0.9 nM

Compound: CC[C@H](CO)Nc1nc(NCc2ccccc2)c2ncn(C(C)C)c2n1 [seleciclib]
- overcoming TAZ resistance in RB1^del G401 cells [3]: able to overcome TAZ resistance

- CHK1 auto-phosphorylation [4]: effective suppression
Compound: N#Cc1cnc(Nc2cc(NC[C@H]3CNCCO3)c(C(F)(F)F)cn2)cn1 [SRA737]

Compound: CCN(c1cc(-c2ccc(CN3CCOCC3)cc2)cc(C(=O)NCc2c(C)cc(C)[nH]c2=O)c1C)C1CCOCC1 [TAZ, Tazemetostat]
- nuclear γH2AX fluorescence, median normalized level [5]: 0.12
- proportion of cells in G1 phase upon TAZ treatment ([6]; RB1^del E1 clone): 31%
- proportion of cells in G1 phase upon TAZ treatment ([6]; RB1^del F2 clone): 28%
- area under the curve (AUC) of TAZ dose responses ([7]; resistant ES1, VAESBJ, ES2, EPI544, MP-MRT-AN cell lines): ≤ 0.3
- area under the curve (AUC) of TAZ dose responses ([7]; sensitive G401, KP-MRT-NS, TTC642, A204, TM8716, KP-MRT-RY cell lines): > 0.3
- proportion of cells in G1 phase upon TAZ treatment [8]: 50%

Compound: COc1cc(Nc2ncc3c(n2)-c2ccc(Cl)cc2C(c2c(F)cccc2OC)=NC3)ccc1C(=O)O [alisertib]
- overcoming TAZ resistance in RB1^del G401 cells [3]: able to overcome TAZ resistance
